In patent publication US7714134B2, “Compounds and use of tetrahydropyridothiophenes” (4SC AG, priority 2004, dated 2010):

Columns and labels:
[1] = system: RKO (RKOp27) human colon adenocarcinoma cells; assay: Alamar Blue cell viability assay, anti-proliferative/cytotoxic activity, RKO p27 uninduced; type: cell-based; conditions: RKOp27, 72 h, proliferating cells, absence of the inducer Ponasterone A, 72 hours incubation
How it was run: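 RKOp27 colon adenocarcinoma subclones, uninduced, seeded at 4000 cells/well and treated 24 h later with semi-log compound dilutions in DMEM with 10% FCS, in quadruplicate. After 72 h at 37 °C, 5% CO2, viability read by Alamar Blue fluorescence (544/590 nm) relative to untreated cells; IC50 taken from concentration-effect curves.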

[2] = system: RKO colon adenocarcinoma cells (RKOp27) arrested by expression of ectopic p27Kip1; assay: Alamar Blue cell viability assay, cell cycle specific mode of action, RKO p27 induced (arrested by Ponasterone A-induced p27Kip1); type: cell-based; conditions: Homo sapiens, RKOp27, 72 h, cells arrested by p27Kip1 induced with 10 μM Ponasterone A, 72 hours incubation
How it was run: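 RKOp27 cells were seeded at 16000 per well in DMEM/10% FCS with 10 μM Ponasterone A to induce p27Kip1 arrest, then given compound dilutions 24 h later for 72 h at 37 °C. Viability was read by Alamar Blue fluorescence (544/590 nm) as % of untreated cells. Arrested cells were compared with proliferating cells grown without inducer.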

Row | Compound | IC50 [1] | IC50 [2]
1 | CCNC(=O)N1CCc2c(sc(NC(=O)c3ccccc3)c2C#N)C1 [Compound 98, 3-Cyano-2-[(1-phenyl-methanoyl)-amino]-4,7-dihydro-5H-thieno[2,3-c]pyridine-6-carboxylic acid ethylamide] | ≤ 3 µM | > 100 µM
2 | COCCOCC(=O)N1CCc2c(sc(NC(=O)c3ccccc3)c2C#N)C1 [Compound 40] | ≤ 3 µM | > 60 µM
3 | N#Cc1c(NC(=O)c2ccccc2)sc2c1CCN(C(=O)OCCCc1ccncc1)C2 [Compound 69, 3-Cyano-2-[(1-phenyl-methanoyl)-amino]-4,7-dihydro-5H-thieno[2,3-c]pyridine-6-carboxylic acid 3-pyridin-4-yl-propyl ester] | ≤ 3 µM | > 60 µM
4 | N#Cc1c(NC(=O)c2ccccc2)sc2c1CCN(C(=O)OCCc1ccccc1)C2 [Compound 65, 3-Cyano-2-[(1-phenyl-methanoyl)-amino]-4,7-dihydro-5H-thieno[2,3-c]pyridine-6-carboxylic acid phenethyl ester] | ≤ 3 µM | > 60 µM
5 | N#Cc1c(NC(=O)c2ccccc2)sc2c1CCN(C(=O)Oc1ccccc1)C2 [Compound 59, 3-Cyano-2-[(1-phenyl-methanoyl)-amino]-4,7-dihydro-5H-thieno[2,3-c]pyridine-6-carboxylic acid phenyl ester] | ≤ 3 µM | > 60 µM
6 | N#Cc1c(NC(=O)c2ccccc2)sc2c1CCN(C(=O)CCCn1ccnc1)C2 [Compound 85, N-[3-Cyano-6-(4-imidazol-1-yl-butanoyl)-4,5,6,7-tetrahydro-thieno[2,3-c]pyridin-2-yl]-benzamide] | ≤ 3 µM | > 100 µM
7 | N#Cc1c(NC(=O)c2ccccc2)sc2c1CCN(C(=O)OCCCN1CCOCC1)C2 [Compound 70, 3-Cyano-2-[(1-phenyl-methanoyl)-amino]-4,7-dihydro-5H-thieno[2,3-c]pyridine-6-carboxylic acid 3-morpholin-4-yl-propyl ester] | ≤ 3 µM | > 60 µM
8 | COc1cccc(C(=O)Nc2sc3c(c2C#N)CCN(C(=O)OC(C)(C)C)C3)c1 [Compound 3, N-(6-tert.-Butyloxycarbonyl-3-cyano-4,5,6,7-tetrahvdro-thieno[2,3-c]pyridin-2-yl)-3-methoxybenzamide] | ≤ 2 µM | > 100 µM
9 | CCCCCCC(=O)N1CCc2c(sc(NC(=O)c3ccccc3)c2C#N)C1 [Compound 6] | ≤ 2 µM | > 100 µM
